Assay results taken from the CheMixHub viscosity set.

Assay: xn = mol fraction of the nth substance listed

CCCC(=O)OCC(COC(=O)CCC)OC(=O)CCC + CCO
viscosity [mPa·s], 101.33 kPa
Settings	x1 = 0.1	x1 = 0.2	x1 = 0.3	x1 = 0.4	x1 = 0.5	x1 = 0.6	x1 = 0.7	x1 = 0.8	x1 = 0.9
298 K	1.59	2.22	2.92	3.63	4.38	5.15	5.97	6.78	7.71
303 K	1.44	1.98	2.58	3.19	3.81	4.48	5.14	5.82	6.58
308 K	1.31	1.78	2.29	2.81	3.35	3.91	4.48	5.04	5.67
313 K	1.21	1.61	2.06	2.51	2.97	3.43	3.92	4.4	4.92

CCCCN + CCO
viscosity [mPa·s]
Settings	298.15 K	303.15 K	313.15 K
100 kPa, x2 = 0.102	0.514	–	–
100 kPa, x2 = 0.15	0.542	–	–
100 kPa, x2 = 0.295	0.626	–	–
100 kPa, x2 = 0.449	0.749	–	–
100 kPa, x2 = 0.501	0.791	–	–
100 kPa, x2 = 0.595	0.872	–	–
100 kPa, x2 = 0.68	0.931	–	–
100 kPa, x2 = 0.752	0.977	–	–
100 kPa, x2 = 0.897	1.051	–	–
101.33 kPa, x1 = 0.1093	–	0.9614	0.7843
101.33 kPa, x1 = 0.1943	–	0.9273	0.747
101.33 kPa, x1 = 0.2825	–	0.8774	0.7048
101.33 kPa, x1 = 0.4151	–	0.7915	0.6383
101.33 kPa, x1 = 0.5136	–	0.7146	0.5888
101.33 kPa, x1 = 0.6128	–	0.6369	0.5355
101.33 kPa, x1 = 0.7066	–	0.5687	0.4844
101.33 kPa, x1 = 0.8039	–	0.5095	0.4428
101.33 kPa, x1 = 0.894	–	0.4717	0.4132

CC[N+](=O)[O-] + CCO
viscosity [mPa·s], 101.33 kPa
Settings	293.15 K	303.15 K	313.15 K
x2 = 0.05	0.669	0.598	0.538
x2 = 0.1001	0.655	0.584	0.526
x2 = 0.15	0.648	0.576	0.519
x2 = 0.2	0.645	0.573	0.512
x2 = 0.25	0.65	0.57	0.507
x2 = 0.3	0.651	0.571	0.506
x2 = 0.35	0.658	0.575	0.509
x2 = 0.4	0.668	0.583	0.513
x2 = 0.45	0.681	0.593	0.519
x2 = 0.5	0.697	0.603	0.528
x2 = 0.55	0.716	0.618	0.538
x2 = 0.6	0.738	0.636	0.55
x2 = 0.65	0.769	0.656	0.567
x2 = 0.7	0.804	0.682	0.586
x2 = 0.7499	0.839	0.712	0.608
x2 = 0.8	0.886	0.748	0.637
x2 = 0.8499	0.944	0.793	0.672
x2 = 0.9	1.015	0.847	0.715
x2 = 0.9499	1.103	0.914	0.77

Cc1ccncc1 + CCO
298.15 K, 101.33 kPa
Settings	viscosity [mPa·s]
x2 = 0.119	0.878
x2 = 0.2179	0.8832
x2 = 0.3335	0.8963
x2 = 0.426	0.9084
x2 = 0.5813	0.9345
x2 = 0.7893	0.9902
x2 = 0.8494	1.015
x2 = 0.9031	1.041

O=C(O)C(Cl)(Cl)Cl + CCOC(=O)c1ccccc1
298.15 K, 101 kPa
Settings	viscosity [mPa·s]
x1 = 0.08874	2.324
x1 = 0.2096	2.93
x1 = 0.3125	3.711
x1 = 0.3982	4.61
x1 = 0.4907	5.848
x1 = 0.5795	7.068
x1 = 0.6758	8.374

CCCCN + CCOC(C)=O
303.15 K, 101 kPa
Settings	viscosity [mPa·s]
x1 = 0.1573	0.4484
x1 = 0.2361	0.4671
x1 = 0.312	0.4741
x1 = 0.4217	0.4759
x1 = 0.5671	0.476
x1 = 0.6505	0.4772
x1 = 0.7907	0.4779
x1 = 0.8803	0.4928

O=C(O)C(Cl)(Cl)Cl + CCOC(C)=O
298.15 K, 101 kPa
Settings	viscosity [mPa·s]
x1 = 0.1118	0.5878
x1 = 0.184	0.7309
x1 = 0.2807	1.001
x1 = 0.3846	1.449
x1 = 0.4878	2.176
x1 = 0.6142	3.467
x1 = 0.7008	4.709

CCCCN + CCOCCO
308.15 K, 101 kPa
Settings	viscosity [mPa·s]
x2 = 0.0802	0.5335
x2 = 0.2044	0.6473
x2 = 0.3059	0.7671
x2 = 0.4065	0.8896
x2 = 0.5068	1.007
x2 = 0.6065	1.115
x2 = 0.7058	1.209
x2 = 0.9024	1.376

CCCCN + CO
viscosity [mPa·s]
Settings	298.15 K	303.15 K	313.15 K	323.15 K
100 kPa, x2 = 0.1	0.505	–	–	–
100 kPa, x2 = 0.203	0.552	–	–	–
100 kPa, x2 = 0.299	0.599	–	–	–
100 kPa, x2 = 0.399	0.653	–	–	–
100 kPa, x2 = 0.501	0.707	–	–	–
100 kPa, x2 = 0.598	0.747	–	–	–
100 kPa, x2 = 0.697	0.761	–	–	–
100 kPa, x2 = 0.796	0.732	–	–	–
100 kPa, x2 = 0.9	0.65	–	–	–
101 kPa, x2 = 0.1159	–	0.47	0.409	0.357
101 kPa, x2 = 0.2309	–	0.494	0.425	0.369
101 kPa, x2 = 0.3289	–	0.518	0.439	0.377
101 kPa, x2 = 0.426	–	0.549	0.458	0.386
101 kPa, x2 = 0.5325	–	0.584	0.482	0.397
101 kPa, x2 = 0.6186	–	0.607	0.498	0.405
101 kPa, x2 = 0.7296	–	0.617	0.508	0.411
101 kPa, x2 = 0.8167	–	0.602	0.502	0.41
101 kPa, x2 = 0.9076	–	0.562	0.481	0.408
